Literature values in patent US10590413B2, “Chiral control” (WAVE LIFE SCIENCES LTD., priority 2012, dated 2020).
Read-outs that look alike come from different tables or passages of the source.

Columns and labels:
human PBMC = settings: cited from earlier work
[1] = test system: Murine IL-6 production and B cell activation; settings: cited from earlier work; for IL-6 (pg/ml) CH12.LX: CH12.LX cells; for IL-6 (pg/ml) SPLENIC B CELL: splenic B cells
[2] = test system: ODN-induced cytokine expression; settings: ELISA on supernatants from DBA/2 spleen cells, 2 × 10^7 cells/ml, 24 hr, ODN at 30 μg/ml; cited from earlier work
[3] = oligo 1619 alone or with a second "bad" CpG oligonucleotide added; cited from earlier work
NK activity = settings: cited from earlier work
[4] = ODN 12 μg/ml, 24 hr, 10% autologous serum, level above wells with no ODN, ELISA
[5] = unstimulated control ≤10 pg/ml, US 6,239,116 Table 2

## 1619 (DNA TCCATGTCGTTCCTGATGCT; chemistry not given here) [Oligonucleotide 1619]
Human PBMC; ODN 12 μg/ml, 4 hr, 10% autologous serum, level above wells with no ODN, ELISA
  TNF-α: 450 pg/mL
Human PBMC; [4]
  GM-CSF: 80 pg/mL
  IFN-γ: 200 pg/mL
  IL-6: 275 pg/mL
  IL-12: 450 pg/mL
Human PBMC
  GM-CSF: 80
  IFN-γ: 200
  IL-6: 275
  IL-12: >500
  TNF-α: 450
[1]
  IL-6 (pg/ml) CH12.LX: 1555 ± 304 pg/mL
  IL-6 (pg/ml) SPLENIC B CELL: 2908 ± 129 pg/mL
[1]; [5]
  IL-6 (pg/ml) CH12.LX: 1555 ± 304 pg/mL
  IL-6 (pg/ml) SPLENIC B CELL: 2908 ± 129 pg/mL
[1]; cells stimulated with 20 μM CpG O-ODN, mean ± SD of triplicates
  SI (stimulation index, [3H] uridine uptake, fold increase from unstimulated control): 12.5 ± 1.0
[1]; fold increase from unstimulated control, 20 μM CpG O-ODN, mean ± SD of triplicates
  SI (stimulation index, [3H] uridine uptake): 12.5 ± 1.0
[1]; measured by ELISA, unstimulated culture 547 ± 82 ng/ml
  IgM: 8243 ± 698 ng/mL
[2]
  ODN-induced cytokine expression IFN-γ: 4628 pg/mL
  ODN-induced cytokine expression IL-6: 1405 pg/mL
  ODN-induced cytokine expression IL-12: 3130 pg/mL
[3]
  IL-12 in pg/ml: 6 pg/mL
NK activity; Expt. 3, None = 0.00
  LU/10^6, Mouse Cells: 3.35 LU/10^6
NK activity; Table 3 of U.S. Pat. No. 6,214,806
  NK activity LU/10^5 Mouse Cells: 3.35 LU/10^5
NK activity; Table 9 of U.S. Pat. No. 6,207,646
  NK activity LU/10^6 Mouse Cells: 3.35 LU/10^6
